Results from patent publication US20250277213A1, “COMPOSITIONS AND METHODS RELATED TO MULTIPLE MYELOMA-ASSOCIATED LONG NONCODING RNAS” (Washington University, priority 2024, published 2025).
“Also recorded” adds a separate entry of the source.

Key:
Assay type in all cases: cell-based
LINC01432 [1] = assay: LINC01432 expression in U266B1 cells treated with standard drugs; details: FIG. 8B, 8C
LINC01432 [2] = assay: mFISH of LINC01432 in U266B1 cells treated with high-dose melphalan
Procedure: RNAScope was performed as previously described, with some modifications using RNAscope 2.5 HD Reagent Kit Red assay combined with Immunohistochemistry (Advanced Cell Diagnostics [ACD], Catalog #323180 and #322372) according to manufacturer's instructions. Briefly, bone marrow aspirates or isolated tumors were applied to slides were baked in a dry air oven for one hour at 60° C., deparaffinized (Xylene for five minutes twice, followed by 100% ethanol for two minutes twice), hydrogen peroxide was applied for 10 minutes at room temperature, and co-detection target retrieval was performed using Steamer (BELLA) for twenty minutes and PBS-T washing. Slides were then incubated overnight with CUGBP2 (CELF2) antibody (Protein Tech, Cat #12921-1-AP) in a HybEz Slide Rack with damp humidifying paper and incubated overnight at 4° C. The next day, slides were washed in PBS-T then post-primary fixation was performed by submerging slides in 10% NBF for 30 minutes at room temperature. […]
Analysis of mFISH and IHC images was performed by comparing expression of LINC01432 or CELF2 between different cell lines or tissues and simultaneously verifying their cellular localization or intensity of expression. We first visualized our target RNA molecules using an EVOS M5000 imaging system and quantified targets with QuPath Software v0.5.1 to obtain cell-count per region and number of spots per cell data. […]

[3] = system: LINC01432 binding to CELF2; assay: iCLIP RT-qPCR of CELF2 binding to LINC01432 in U266B1 cells treated with melphalan; details: high-dose melphalan for 48 hours, FIG. 16B
Procedure: Cells were seeded at a density of twenty million cells/150 mm dish. The next day, cells were washed with cold PBS and media volumes were adjusted to 10 ml/dish. Dishes were then uncovered and irradiated with 150 mJ/cm^2 of […] (254 nm) in a crosslinker device (Stratalinker). Cells were then harvested and centrifuged at 2000 RPM at 4° C. for 5 minutes. Cell pellets were resuspended in 1 ml of NP-40 lysis buffer (20 mM Tris-HCl at pH 7.5, 100 mM KCl, 5 mM MgCl2, and 0.5% NP-40) with 1 μl protease inhibitor and 1 mM DTT, incubated on ice for ten minutes, and then centrifuged at 10,000 RPM for 15 minutes at 4° C. Supernatants were collected, 1 U/μl RNase T1 was added, then cell lysates were incubated at 22° C. for 30 minutes. Protein G Beads were resuspended in 100 μls NT2 buffer (50 mM Tris-HCl at pH 7.5, 150 mM NaCl,1 mM MgCl2, 0.05% NP-40) with 5 μg of respective antibodies, then rotated for one hour at room temperature. Cell lysates were added to the beads and incubated for three hours at 4° C., the beads were washed with NT2 buffer, and then incubated with 20 units RNAse-free DNase I for 15 minutes at 37° C. in a thermomixer, shaking slowly. […] (141 μls NP-40 lysis buffer, 0.1% SDS, 0.5 mg/ml Proteinase K) was then added and incubated for 15 minutes at 55° C. in a thermomixer, shaking at maximum speed. […]

MM cell lines = assay: Apoptosis after LNA ASO-mediated CELF2 knockdown; details: MM cell lines (U266B1 in FIG. 12B); vs control LNA ASO
LINC01432 [4] = assay: RT-qPCR of LINC01432 expression after LNA ASO transfection; details: RPMI 8226 cells; 100 nM ASO, 48-72 hours; vs control LNA ASO; FIG. 5A
Procedure: (§1) Locked nucleic acid GapmeR antisense oligonucleotides (LNA ASOs) targeting LINC01432 (Qiagen, cat #3653410) and CELF2 (Qiagen, cat #339511), and negative control LNA ASOs (Qiagen, cat #148759394), were designed using the Qiagen Antisense LNA GapmeR Custom Builder (https://www.qiagen.com), sequences are listed in Table 2. RPMI 8226 cells were seeded at a density of 500,000 cells/well in 6-well plates, transfected with respective ASOs at 100 nM concentration using Lipofectamine 2000, and incubated for 48-72 hours. Cells were harvested and target knockdown was validated via RT-qPCR.

RPMI 8226 cells [5] = system: RPMI 8226 cells
Procedure: as §1
(§2) We used the ApoTox-Glo Triplex Assay (Promega, Madison, WI) to simultaneously measure viability, cytotoxicity, and apoptosis in the same sample. We seeded 20,000 cells/well of Control CRISPR/Cas9, LINC01432 knockdown CRISPR/Cas9, empty vector, LINC01432 overexpression, or wild-type RPMI 8226 cells in triplicate into a 96-well plate at 100 uls complete media per well. We began by first adding 20 ul of Viability/Cytoxicity reagent to all wells, and briefly mixing for ˜30 seconds. Plates were then placed in a 37° C. incubator for one hour. Next, we measured the intensity of fluorescence (relative fluorescence units) using 400Ex/505Em (viability) and 485Ex/520Em (Cytotoxicity) in Varioskan LUX microplate reader. To measure apoptosis, we next add 100 ul Caspase-Glo 3/7 reagent to the same wells and briefly mixed by orbital shaking ˜20 seconds, followed by incubation at room temp for 30 minutes. Luminescence (relative luminescence units) was then measured using Varioskan LUX microplate reader to detect caspase activation. A similar protocol was used to detect the proliferation of cells treated with Melphalan at increasing concentrations (Sigma Aldrich, St. Louis, MO, cat #M2011) using 10 uls Invitrogen alamarBlue HS Cell Viability Reagent in 90 μls of 25,000 cells with media (Waltham, MA, cat #A50100). Fluorescence was then measured using 560Ex/570Em in a microplate reader.

RPMI 8226 cells [6] = assay: Annexin V and propidium iodide flow cytometry, LNA ASO followed by Melphalan
Procedure: We measured apoptosis by isolating cells and assessing via flow cytometry using BD Horizon V450 AnnexinV (BD Biosciences, Franklin Lakes, NJ). We seeded 500,000 cells/well in a 6-well plate for 24 hours. Cells were then harvested, and the usual protocol was followed, per manufactures instructions. Briefly, cells were washed twice with PBS, then incubated V450 AnnexinV and Propidium Iodide (ThermoFisher) for fifteen minutes at room temperature in the dark. Apoptosis and DNA content was assessed on a flow cytometer machine (Novios, Becton Dickinson) by the Flow Cytometry Core of Siteman Cancer Center, Washington University in St. Louis. We collected a minimum of 50,000 cells per sample in triplicate. FlowJo Version10 (Becton Dickinson) was used to analyze data.

RPMI 8226 cells [7] = assay: Proliferation (alamarBlue, IC50 assay) of cells treated with LNA ASO and Melphalan
Procedure: as §2

## N[C@@H](Cc1ccc(N(CCCl)CCCl)cc1)C(=O)O [melphalan, Melphalan]
LINC01432 [1]
  LINC01432 expression: increases LINC01432 expression
LINC01432 [2]; high-dose melphalan for 24 hours, p=0.001
  LINC01432 expression by mFISH: High expression
LINC01432 [2]; high-dose melphalan for 48 hours, p=0.0012
  LINC01432 expression by mFISH: High expression
[3]
  decrease in binding enrichment compared to control cells, Tiling Primer 1: > 2 Fold Change
  decrease in binding enrichment compared to control cells, Tiling Primer 5: > 2 Fold Change

## CELF2 LNA ASO: LNA GapmeR antisense oligonucleotide targeting CELF2, GATGAACTCGTTACGC (SEQ_ID_NO: 33) (antisense GAUGAACUCGUUACGC; LNA gapmer from Qiagen, LNA pattern not given here)
MM cell lines
  apoptosis: increased apoptosis

## LINC01432-targeted LNA ASO: LNA GapmeR antisense oligonucleotide targeting LINC01432, TGGAGATTTTGCCATT (SEQ_ID_NO: 31) (antisense UGGAGAUUUUGCCAUU; LNA gapmer, pattern not given here)
LINC01432 [4]
  LINC01432 expression: confirmed knockdown of LINC01432 expression
RPMI 8226 cells [5]
  cytotoxicity: significant decreases
RPMI 8226 cells [5]; RPMI 8226 cells, vs control LNA ASO, p=0.001, FIG. 5B
  viability: significant decreases
RPMI 8226 cells [5]; RPMI 8226 cells, vs control LNA ASO, p=0.017, FIG. 5B
  apoptosis: significant increase
RPMI 8226 cells [6]; MM cell lines in vitro, co-treatment with high-dose melphalan
  apoptosis on co-treatment with melphalan: increased apoptosis
RPMI 8226 cells [6]; RPMI 8226 cells, LNA ASO followed by 24 hours of 30 μM Melphalan, vs control LNA ASO, FIG. 5C
  proportion of cells in early apoptosis and necrosis: increased
RPMI 8226 cells [7]; MM cell lines in vitro, with high-dose melphalan
  sensitivity to melphalan: induce sensitivity to melphalan; also recorded: enhanced sensitivity to melphalan
RPMI 8226 cells [7]; RPMI 8226 cells, LNA ASO plus Melphalan, vs control LNA ASO, FIG. 5D
  proliferation: decreased proliferation
